Reference: the Deep4Chem optical property database
Each block holds one compound with its values, some of them ahead of it.

Assay: solvent given as SMILES

Structure (SMILES): CCOC(=O)c1c(-c2cc3ccccc3oc2=O)nn(-c2ccc(Br)cc2)c1C(=O)OCC
absorption maximum (in ClCCl): 323 nm

Structure (SMILES): O=Cc1ccc(C#CC(C#Cc2ccc(C=O)s2)=Cc2ccc(C=C(C#Cc3ccc(C=O)s3)C#Cc3ccc(C=O)s3)s2)s1
absorption maximum (in ClC(Cl)Cl): 524 nm

Structure (SMILES): O=C1OC(=O)c2cc(Oc3ccccc3)c3c4ccc5c6c(cc(Oc7ccccc7)c(c7ccc1c2c73)c64)C(=O)OC5=O
absorption maximum (in C1CCOC1): 516 nm
absorption maximum (in CN1CCCC1=O): 529 nm
absorption maximum (in CN(C)C=O): 530 nm

Structure (SMILES): COc1ccc(C#CC2=C3CCc4ccccc4C3=[O+][B-](F)(F)O2)cc1
absorption maximum (in ClCCl): 446 nm

Structure (SMILES): Cc1ccc2occ(CC(=O)NN)c2c1
absorption maximum (in C1CCOC1): 292 nm
absorption maximum (in CC#N): 289 nm
absorption maximum (in CC(C)=O): 293 nm
absorption maximum (in CCCCO): 290 nm
absorption maximum (in CCCO): 281 nm
absorption maximum (in CCO): 283 nm
absorption maximum (in CCOC(C)=O): 296 nm
absorption maximum (in CN(C)C=O): 313 nm
absorption maximum (in CO): 279 nm
absorption maximum (in ClCCl): 284 nm

Structure (SMILES): COC(=O)/C(C#N)=c1\s/c(=c2/s/c(=C(/C#N)C(=O)OC)c3cc(-c4ccc(OC)cc4)sc23)c2sc(-c3ccc(OC)cc3)cc12
absorption maximum (in Cc1ccccc1): 628 nm

Structure (SMILES): CCCCN1C(=O)C2=C(c3ccc(Br)cc3)[N-]C(=O)C2=C1c1ccc(Br)cc1
absorption maximum (in ClCCl): 571 nm

Structure (SMILES): F[Si-](F)(c1ccccc1)(c1c2ccccc2cc2ccccc12)c1c2ccccc2cc2ccccc12
absorption maximum (in C1CCOC1): 391 nm

Structure (SMILES): c1cc2c3cc1c1ccc4c(c1)c1cc(ccc1[C@]15OCCO[C@]41OCCO5)c1ccc4c(c1)c1cc(ccc1[C@]15OCCO[C@]41OCCO5)c1ccc(c3c1)[C@]13OCCO[C@]21OCCO3
absorption maximum (in Cc1ccccc1): 300 nm

Structure (SMILES): CCOC(=O)COc1ccc(/C=C/C2=C3c4ccccc4C(c4ccc[nH]4)=[N+]3[B-](F)(F)n3ccc(C)c32)cc1
absorption maximum (in C1CCOC1): 586 nm
absorption maximum (in CC#N): 577 nm
absorption maximum (in CCCCCC): 587 nm
absorption maximum (in CO): 580 nm
absorption maximum (in Cc1ccccc1): 592 nm
absorption maximum (in ClCCl): 585 nm

Structure (SMILES): CCC1(CC)c2cc(B(c3c(C)cc(C)cc3C)c3c(C)cc(C)cc3C)ccc2-c2c1c1c(c3c2C(CC)(CC)c2cc(B(c4c(C)cc(C)cc4C)c4c(C)cc(C)cc4C)ccc2-3)C(CC)(CC)c2cc(B(c3c(C)cc(C)cc3C)c3c(C)cc(C)cc3C)ccc2-1
absorption maximum (in C1CCOC1): 362 nm
absorption maximum (in CC#N): 359 nm
absorption maximum (in CC(C)=O): 360 nm
absorption maximum (in CCCCCC): 362 nm
absorption maximum (in Cc1ccccc1): 364 nm

Structure (SMILES): O=[N+]([O-])c1ccc(-c2nc(/C=C/c3ccc(Cl)cc3)c(/C=C/c3ccc(Cl)cc3)[nH]2)cc1
absorption maximum (in ClCCl): 425 nm

Structure (SMILES): CCN(CC)c1ccc2cc(/C=C(\C#N)c3nc4ccccc4s3)c(=O)oc2c1
absorption maximum (in C1COCCO1): 498 nm
absorption maximum (in CC#N): 506 nm
absorption maximum (in CCO): 511 nm
absorption maximum (in CCOC(C)=O): 504 nm
absorption maximum (in CN(C)C=O): 528 nm
absorption maximum (in CO): 512 nm
absorption maximum (in CS(C)=O): 525 nm
absorption maximum (in Cc1ccccc1): 501 nm
absorption maximum (in ClCCl): 509 nm

Structure (SMILES): Cc1ccc2c(c1)c1cc(Br)ccc1n2-c1c(C#N)c(-n2c3ccc(Br)cc3c3cc(Br)ccc32)c(-n2c3ccc(Br)cc3c3cc(Br)ccc32)c(C#N)c1-n1c2ccc(Br)cc2c2cc(Br)ccc21
absorption maximum (in Cc1ccccc1): 339 nm

Structure (SMILES): c1ccc(-c2ccccc2)cc1
absorption maximum (in C1CCCCC1): 254.13 nm
absorption maximum (in C1COCCO1): 246 nm

Structure (SMILES): O=C1O/C(=C\c2cccs2)c2ccccc21
absorption maximum (in CC#N): 355 nm

Structure (SMILES): CCCCOc1ccc(/C=C/C=C/C=C/c2ccc([N+](=O)[O-])cc2)cc1
absorption maximum (in CC1CCCCC1): 414 nm
absorption maximum (in CC#N): 413 nm
absorption maximum (in Cc1ccccc1): 420 nm
absorption maximum (in ClCCl): 421 nm

Structure (SMILES): CCCCC1(CCCC)c2cc(/C=C/c3ccc(N(c4ccccc4)c4ccccc4)cc3)ccc2-c2cc3c(cc21)-c1ccc(/C=C/c2ccc(N(c4ccccc4)c4ccccc4)cc2)cc1C3(CCCC)CCCC
absorption maximum (in Cc1ccccc1): 413 nm

Structure (SMILES): O=S1(=O)c2ccccc2Oc2cc(N3c4ccccc4C4(c5ccccc53)c3ccccc3N(c3ccc5c(c3)Oc3ccccc3S5(=O)=O)c3ccccc34)ccc21
absorption maximum (in Cc1ccccc1): 359.89 nm

Structure (SMILES): C(=C\c1c2ccccc2cc2ccccc12)/c1ccc2ccccc2c1
absorption maximum (in CC1CCCCC1): 386 nm
absorption maximum (in CC#N): 387 nm

Structure (SMILES): CCCCCCCCCCc1cc(-c2cc(CCCCCCCCCC)c(-c3cccs3)s2)sc1-c1cccs1
absorption maximum (in CCCCCCCCCCCCCC): 380 nm

Structure (SMILES): CCC1=C(C)C2=C(C)c3cccn3[B-](F)(F)[N+]2=C1C
absorption maximum (in C1CCCCC1): 504 nm
absorption maximum (in CC(C)=O): 495 nm
absorption maximum (in CCO): 497 nm
absorption maximum (in CCOC(C)=O): 496 nm
absorption maximum (in CO): 495.5 nm
absorption maximum (in OCC(F)(F)F): 492 nm

Structure (SMILES): CCCCCCCCN1C(=O)c2ccc3c4c(-c5ccc6c7ccccc7n(-c7ccccc7)c6c5)cc5c6c(cc(-c7ccc8c9ccccc9n(-c9ccccc9)c8c7)c(c7ccc(c2c37)C1=O)c64)C(=O)N(CCCCCCCC)C5=O
absorption maximum (in ClC(Cl)Cl): 567 nm

Structure (SMILES): COc1cc2c(cc1F)c(=O)c1cc(F)c(OC)cc1n2-c1ccccc1
absorption maximum (in CCO): 378 nm

Structure (SMILES): COc1nc(Cl)nc(Nc2ccc3cc4ccccc4cc3c2)n1
absorption maximum (in C1COCCO1): 394 nm
absorption maximum (in CC#N): 397 nm
absorption maximum (in CCCCOCCCC): 396 nm
absorption maximum (in CCOC(C)=O): 398 nm

Structure (SMILES): CC(C)CN1C(=O)/C(=C/c2ccc([N+](=O)[O-])cc2)C=C1c1ccccc1
absorption maximum (in C1COCCO1): 456 nm

Structure (SMILES): CCCCCCN1C(=O)c2cccc3c(-c4ccc(-c5ccc6c7c(cccc57)C(=O)N(CCCCCC)C6=O)s4)ccc(c23)C1=O
absorption maximum (in ClC(Cl)Cl): 395 nm

Structure (SMILES): O=Cc1ccc(-c2ccc(C3=CCC(c4ccccc4)CC3)s2)s1 (stereo not given)
absorption maximum (in C1CCOC1): 385 nm
absorption maximum (in CC#N): 385 nm
absorption maximum (in CCCCCC): 380 nm
absorption maximum (in CCO): 389 nm
absorption maximum (in OCCOCCO): 389 nm
absorption maximum (in c1ccncc1): 393 nm

Structure (SMILES): COc1ccc2c3c(c4ccc(OC)cc4c2c1)C(C)(C)c1cc(-c2ccccc2)ccc1-3
absorption maximum (in C1CCCCC1): 389 nm

More lines, now with the values ahead:

absorption maximum (in C1CCOC1): 401 nm
Structure (SMILES): C[Si](C)(C)c1ccc(-c2ccc(-c3ccc(-c4ccc(-c5ccc([Si](C)(C)C)cc5)cc4)c4nsnc34)cc2)cc1

absorption maximum (in C1COCCO1): 454 nm
Structure (SMILES): COC(=O)c1ccc(/C=C2\C=C(c3ccc(OC)c(OC)c3)NC2=O)cc1

absorption maximum (in C1CCOC1): 382 nm
Structure (SMILES): CC1(C)c2ccccc2-c2ccc(N(c3ccccc3)c3ccc4c(c3)C(C)(C)c3cc(-c5cc6ccccc6c6c5oc5ccccc56)ccc3-4)cc21

absorption maximum (in ClC(Cl)Cl): 422 nm
Structure (SMILES): CCCN1c2ccccc2Sc2cc(/C=C\c3cc(=O)oc4cc(O)ccc34)ccc21

absorption maximum (in C1COCCO1): 411 nm
absorption maximum (in CC#N): 408 nm
absorption maximum (in CCO): 411 nm
absorption maximum (in CCOC(C)=O): 408 nm
absorption maximum (in O): 408 nm
Structure (SMILES): CN1C(=O)/C(=C/c2ccncc2)N=C1/C=C/c1ccccc1

absorption maximum (in ClC(Cl)Cl): 626 nm
Structure (SMILES): Cc1cc(C)c(C2=C3C=CC4=[N+]3[B-]3(Oc5ccccc54)Oc4ccccc4-c4ccc2n43)c(C)c1 (stereo not given)

absorption maximum (in ClCCl): 394 nm
Structure (SMILES): O=c1c2ccccc2n(-c2ccc(-c3ccc(N(c4ccccc4)c4ccccc4)cc3)cc2)c2ccccc12

absorption maximum (in C1CCOC1): 404 nm
Structure (SMILES): COc1cc2c(cc1-c1ccc(C(F)(F)F)cc1)Cc1c3c(c4c(c1-2)-c1cc(OC)c(-c2ccc(C(F)(F)F)cc2)cc1C4)C(=O)N(CCC(C)C)C3=O

absorption maximum (in ClCCl): 391 nm
Structure (SMILES): Cc1c(C(=O)c2ccccc2)c2ccc3cccc4c5cccc6ccc1c(c65)c2c34

absorption maximum (in CS(C)=O): 386 nm
Structure (SMILES): Brc1ccc(N/C=C/C=[NH+]c2ccc(Br)cc2)cc1

absorption maximum (in CC#N): 304 nm
Structure (SMILES): Cc1ccc(C#Cc2ccc3ccc(=O)oc3c2)cc1

absorption maximum (in CS(C)=O): 406 nm
Structure (SMILES): Cn1c2ccc(S(=O)(=O)Cl)cc2c(=O)c2cc(S(=O)(=O)Cl)ccc21

absorption maximum (in CC#N): 333 nm
Structure (SMILES): CN(C)c1ccc(C#Cc2ccc3ccc(=O)oc3c2)cc1

absorption maximum (in O): 360 nm
Structure (SMILES): O=C([O-])c1cc2c(ccc3ccccc32)oc1=O

absorption maximum (in CC#N): 377 nm
absorption maximum (in CCO): 386 nm
Structure (SMILES): CC1(C)CC(=O)c2cc(F)cc(F)c2N1

absorption maximum (in CO): 336 nm
absorption maximum (in O): 350 nm
Structure (SMILES): O=[N+]([O-])c1ccc[nH]1

absorption maximum (in CC#N): 300 nm
Structure (SMILES): O=c1ccc2ccc(C#Cc3ccccc3)cc2o1

absorption maximum (in ClCCl): 611 nm
Structure (SMILES): CC1=c2ccccc2=[N+]2C1=Cc1c3ccccc3c(-c3[nH]c4ccccc4c3C)n1[B-]2(F)F

absorption maximum (in CO): 450 nm
Structure (SMILES): C1=CN2C[n+]3cccc(OCc4ccccc4)c3N=C2C(OCc2ccccc2)=C1

absorption maximum (in CCO): 362 nm
Structure (SMILES): CC(C)=CCN1C(=O)c2cccc3c2c(cc2oc(C)nc23)C1=O

absorption maximum (in ClC(Cl)Cl): 385 nm
Structure (SMILES): CC(C)(C)N1C(=O)c2c(cc3ccc4cccc5ccc2c3c45)C1O (stereo not given)

absorption maximum (in C1CCCCC1): 378 nm
absorption maximum (in CC#N): 384 nm
absorption maximum (in ClC(Cl)Cl): 384 nm
Structure (SMILES): c1cc2ccc1CCCc1ccc(c3nsnc13)CCC2

absorption maximum (in C1CCOC1): 546 nm
Structure (SMILES): CC1=CC2=C3C(=C4C(C)=C(c5ccc(-c6nc(-c7ccccc7)c(-c7ccccc7)[nH]6)cc5)S[C@@]4(C)[C@]2(C)S1)C(F)(F)C(F)(F)C3(F)F

absorption maximum (in ClCCl): 354 nm
Structure (SMILES): c1ccc(N(c2ccccc2)c2ccc3c(c2)-c2ccccc2C32c3ccccc3-n3c4ccccc4c4cccc2c43)cc1 (stereo not given)

absorption maximum (in ClCCl): 634 nm
Structure (SMILES): COc1ccc(C2=C3C(/C=C/c4cc(OC)c(OC)c(OC)c4)=C(C=O)C(C)=[N+]3[B-](F)(F)n3c(/C=C/c4cc(OC)c(OC)c(OC)c4)c(C=O)c(C=Cc4cc(OC)c(OC)c(OC)c4)c32)cc1

absorption maximum (in C1CCCCC1): 263.78 nm
Structure (SMILES): Cc1ccc(C)c(C)c1

absorption maximum (in ClCCl): 590 nm
Structure (SMILES): CCCCCCOc1ccc(N(c2ccc(OCCCCCC)cc2)c2ccc(-c3sc(-c4ccc(N(c5ccc(OCCCCCC)cc5)c5ccc(OCCCCCC)cc5)cc4)c4nc(-c5ccc(OC)cc5)c(-c5ccc(OC)cc5)nc34)cc2)cc1

absorption maximum (in CC#N): 560 nm
Structure (SMILES): CC1=CC(C)=[N+]2C1=C(c1ccccc1)c1c(C)cc(/C=C/c3ccccc3)n1[B-]2(F)F

absorption maximum (in C1CCCCC1): 387 nm
absorption maximum (in CC#N): 392 nm
absorption maximum (in CC(C)O): 393 nm
absorption maximum (in CO): 396 nm
absorption maximum (in CS(C)=O): 405 nm
absorption maximum (in ClC(Cl)Cl): 395 nm
absorption maximum (in c1ccccc1): 394 nm
Structure (SMILES): COC(=O)c1ccc(-c2nc3ccc(N(C)C)cc3s2)cc1

absorption maximum (in CCO): 344 nm
absorption maximum (in ClC(Cl)Cl): 345 nm
Structure (SMILES): COc1ccc2c(-c3nc(-c4ccccc4)no3)cc(=O)oc2c1
